From PMC11822212, “High-throughput screening identifies Aurora kinase B as a critical therapeutic target for Merkel cell carcinoma” (Nature Communications, 2025)
Counter-ions that a name gives are not always drawn.

Tests used:
UISO cells (VN-MCC) = experiment: qHTS cell viability (CellTiter-Glo, 72 h; primary and follow-up small molecule screen); format: cell-based, human
MKL-2 cells (VP-MCC) = experiment: as above; format: cell-based, human
[1] = test system: control cell lines (HACAT, HEK293T, CRL-7250, NIH-3T3); experiment: qHTS cell viability, control cell lines as a group (mean AUC, Control.avg); format: cell-based; details: mean AUC of control cell lines
NIH-3T3 cells = experiment: qHTS cell viability (CellTiter-Glo, 72 h; primary screen), control cell line; format: cell-based, mouse
[2] = test system: VN-MCC cell lines (MCC13, MCC26, UISO); experiment: qHTS cell viability, VN-MCC cell lines as a group (mean AUC, VN.MCC.avg); format: cell-based, human; details: for VN-MCC_Avg_AUC: mean AUC of VN-MCC cell lines
[3] = test system: six MCC cell lines and four control cell lines; experiment: qHTS cell viability, all 10 cell lines screened; format: cell-based
[4] = test system: VP-MCC cell lines (WAGA, MKL-1, MKL-2); experiment: qHTS cell viability, VP-MCC cell lines as a group (mean AUC, VP.MCC.avg); format: cell-based, human; details: for VP-MCC_Avg_AUC: mean AUC of VP-MCC cell lines
HACAT cells = experiment: qHTS cell viability (CellTiter-Glo, 72 h; primary screen), control cell line; format: cell-based, human
CRL-7250 cells = experiment: as above; format: cell-based
HEK293T cells = experiment: as above; format: cell-based, human
MKL-1 cells (VP-MCC) = experiment: qHTS cell viability (CellTiter-Glo, 72 h; primary and follow-up small molecule screen); format: cell-based, human
[5] = test system: MCC cell lines (WAGA, MKL-1, MKL-2, MCC13, MCC26, UISO); experiment: qHTS cell viability, all six MCC cell lines as a group (mean AUC, MCC.avg); format: cell-based, human; details: mean AUC of six MCC cell lines
MCC26 cells (VN-MCC) = experiment: qHTS cell viability (CellTiter-Glo, 72 h; primary and follow-up small molecule screen); format: cell-based, human
WAGA cells (VP-MCC) = experiment: as above; format: cell-based, human
MCC13 cells (VN-MCC) = experiment: as above; format: cell-based, human
[6] = MIPE library, 11-point DRC, sheet S2D
[7] = MIPE library, 11-point DRC, sheet S2E
[8] = MIPE library, 11-point DRC, control cell line, sheet S2D
[9] = MIPE library, 11-point DRC, control cell line, sheet S2E
[10] = NPC library, 8-point DRC, area under dose-response curve
[11] = NPC library, 8-point DRC, control cell line

With `CC[C@@]1(O)C(=O)OCc2c1cc1n(c2=O)Cc2cc3c(CN(C)C)c(O)ccc3nc2-1` [Topotecan HCl] the UISO_AUC (UISO cells (VN-MCC); [6]) was 243.367, the UISO_AUC (UISO cells (VN-MCC); [7]) was 243.367 and the UISO_AUC (UISO cells (VN-MCC); NPC library, qHTS dose-response AUC, UISO) was 244.938. For the same compound, the “Area under the dose-response curve (AUC) UISO Replicate 1” value (UISO cells (VN-MCC); follow-up screen, UISO, replicate 1) was 203.8, the “Area under the dose-response curve (AUC) UISO Replicate 2” value (UISO cells (VN-MCC); follow-up screen, UISO, replicate 2) was 226.9 and the “Area under the dose-response curve (AUC) UISO Replicate 3” value (UISO cells (VN-MCC); follow-up screen, UISO, replicate 3) was 223.1. It also gave an MKL2_AUC (MKL-2 cells (VP-MCC); [6]) of 250.703, an MKL2_AUC (MKL-2 cells (VP-MCC); [7]) of 250.703 and an MKL2_AUC (MKL-2 cells (VP-MCC); NPC library, qHTS dose-response AUC, MKL2) of 174.677. The “Area under the dose-response curve (AUC) MKL-2 Replicate 1” value (MKL-2 cells (VP-MCC); follow-up screen, MKL-2, replicate 1) was 184.1, the “Area under the dose-response curve (AUC) MKL-2 Replicate 2” value (MKL-2 cells (VP-MCC); follow-up screen, MKL-2, replicate 2) was 181.9 and the “Area under the dose-response curve (AUC) MKL-2 Replicate 3” value (MKL-2 cells (VP-MCC); follow-up screen, MKL-2, replicate 3) was 262.9. It also gave a Control_Avg_AUC ([1]; MIPE library, sheet S2D) of 345.124, a Control_Avg_AUC ([1]; MIPE library, sheet S2E) of 345.124 and a Control_Avg_AUC ([1]; NPC library) of 300.661. The NIH3T3_AUC (NIH-3T3 cells; [8]) was 368.835, the NIH3T3_AUC (NIH-3T3 cells; [9]) was 368.835 and the NIH3T3_AUC (NIH-3T3 cells; NPC library, qHTS dose-response AUC, NIH3T3 control) was 374.778. For the same compound, the Control-VN-MCC ([2]; MIPE library, Control AUC minus VN-MCC AUC (therapeutic window), sheet S2D) was 42.4232, the Control-VN-MCC ([2]; MIPE library, Control AUC minus VN-MCC AUC (therapeutic window), sheet S2E) was 42.4232 and the VN-MCC_Avg_AUC ([2]; MIPE library, sheet S2D) was 302.701. The VN-MCC_Avg_AUC ([2]; MIPE library, sheet S2E) was 302.701, the VN-MCC_Avg_AUC ([2]; NPC library) was 272.239 and the Control-VN-MCC ([2]; NPC library, therapeutic window: Control avg AUC minus VN-MCC avg AUC) was 28.4215. The Control-MCC ([3]; MIPE library, Control AUC minus MCC AUC (therapeutic window), sheet S2D) was 77.6607, the Control-MCC ([3]; MIPE library, Control AUC minus MCC AUC (therapeutic window), sheet S2E) was 77.6607 and the Control-MCC ([3]; NPC library, therapeutic window: Control avg AUC minus MCC avg AUC) was 81.3959. For the same compound, the Control-VP-MCC ([4]; MIPE library, Control AUC minus VP-MCC AUC (therapeutic window), sheet S2D) was 112.898, the Control-VP-MCC ([4]; MIPE library, Control AUC minus VP-MCC AUC (therapeutic window), sheet S2E) was 112.898 and the VP-MCC_Avg_AUC ([4]; MIPE library, sheet S2D) was 232.226. For the same compound, the VP-MCC_Avg_AUC ([4]; MIPE library, sheet S2E) was 232.226, the VP-MCC_Avg_AUC ([4]; NPC library) was 166.29 and the Control-VP-MCC ([4]; NPC library, therapeutic window: Control avg AUC minus VP-MCC avg AUC) was 134.37. The HACAT_AUC (HACAT cells; [8]) was 331.992, the HACAT_AUC (HACAT cells; [9]) was 331.992 and the HACAT_AUC (HACAT cells; NPC library, qHTS dose-response AUC, HACAT control) was 242.195. It also gave a CRL7250_AUC (CRL-7250 cells; [8]) of 391.937, a CRL7250_AUC (CRL-7250 cells; [9]) of 391.937 and a CRL7250_AUC (CRL-7250 cells; NPC library, qHTS dose-response AUC, CRL7250 control) of 360.108. The HEK293T_AUC (HEK293T cells; [8]) was 287.732, the HEK293T_AUC (HEK293T cells; [9]) was 287.732 and the HEK293T_AUC (HEK293T cells; NPC library, qHTS dose-response AUC, HEK293T control) was 225.562. The MKL1_AUC (MKL-1 cells (VP-MCC); [6]) was 269.988, the MKL1_AUC (MKL-1 cells (VP-MCC); [7]) was 269.988 and the MKL1_AUC (MKL-1 cells (VP-MCC); NPC library, qHTS dose-response AUC, MKL1) was 185.429. For the same compound, the “Area under the dose-response curve (AUC) MKL-1 Replicate 1” value (MKL-1 cells (VP-MCC); follow-up screen, MKL-1, replicate 1) was 222.0, the “Area under the dose-response curve (AUC) MKL-1 Replicate 2” value (MKL-1 cells (VP-MCC); follow-up screen, MKL-1, replicate 2) was 224.3 and the “Area under the dose-response curve (AUC) MKL-1 Replicate 3” value (MKL-1 cells (VP-MCC); follow-up screen, MKL-1, replicate 3) was 226.9. The MCC_Avg_AUC ([5]; MIPE library, sheet S2D) was 267.463, the MCC_Avg_AUC ([5]; MIPE library, sheet S2E) was 267.463 and the MCC_Avg_AUC ([5]; NPC library) was 219.265. The MCC26_AUC (MCC26 cells (VN-MCC); [6]) was 328.226, the MCC26_AUC (MCC26 cells (VN-MCC); [7]) was 328.226 and the MCC26_AUC (MCC26 cells (VN-MCC); NPC library, qHTS dose-response AUC, MCC26) was 267.734. For the same compound, the “Area under the dose-response curve (AUC) MCC26 Replicate 1” value (MCC26 cells (VN-MCC); follow-up screen, MCC26, replicate 1) was 273.0, the “Area under the dose-response curve (AUC) MCC26 Replicate 2” value (MCC26 cells (VN-MCC); follow-up screen, MCC26, replicate 2) was 257.6 and the “Area under the dose-response curve (AUC) MCC26 Replicate 3” value (MCC26 cells (VN-MCC); follow-up screen, MCC26, replicate 3) was 280.5. The WAGA_AUC (WAGA cells (VP-MCC); [6]) was 175.987, the WAGA_AUC (WAGA cells (VP-MCC); [7]) was 175.987 and the WAGA_AUC (WAGA cells (VP-MCC); NPC library, qHTS dose-response AUC, WAGA) was 138.765. For the same compound, the “Area under the dose-response curve (AUC) WAGA Replicate 1” value (WAGA cells (VP-MCC); follow-up screen, WAGA, replicate 1) was 206.9, the “Area under the dose-response curve (AUC) WAGA Replicate 2” value (WAGA cells (VP-MCC); follow-up screen, WAGA, replicate 2) was 188.0 and the “Area under the dose-response curve (AUC) WAGA Replicate 3” value (WAGA cells (VP-MCC); follow-up screen, WAGA, replicate 3) was 185.4. For the same compound, the MCC13_AUC (MCC13 cells (VN-MCC); [6]) was 336.51 and the MCC13_AUC (MCC13 cells (VN-MCC); [7]) was 336.51.

With `O=C1CC2(CCCC2)CC(=O)N1CCCCN1CCN(c2ncccn2)CC1` [Buspirone] the UISO_AUC (UISO cells (VN-MCC); [10]) was 435.953, the MKL2_AUC (MKL-2 cells (VP-MCC); [10]) was 407.552 and the Control_Avg_AUC ([1]; NPC library) was 487.669. The NIH3T3_AUC (NIH-3T3 cells; [11]) was 490.08, the Control-VN-MCC ([2]; NPC library, Control AUC minus VN-MCC AUC (therapeutic window)) was 50.1753 and the VN-MCC_Avg_AUC ([2]; NPC library) was 437.494. For the same compound, the Control-MCC ([3]; NPC library, Control AUC minus MCC AUC (therapeutic window)) was 50.4353, the Control-VP-MCC ([4]; NPC library, Control AUC minus VP-MCC AUC (therapeutic window)) was 50.6954 and the VP-MCC_Avg_AUC ([4]; NPC library) was 436.974. For the same compound, the HACAT_AUC (HACAT cells; [11]) was 483.772, the CRL7250_AUC (CRL-7250 cells; [11]) was 487.221 and the HEK293T_AUC (HEK293T cells; [11]) was 489.604. For the same compound, the MKL1_AUC (MKL-1 cells (VP-MCC); [10]) was 457.095, the MCC_Avg_AUC ([5]; NPC library) was 437.234 and the MCC26_AUC (MCC26 cells (VN-MCC); [10]) was 427.549. The WAGA_AUC (WAGA cells (VP-MCC); [10]) was 446.274 and the MCC13_AUC (MCC13 cells (VN-MCC); [10]) was 448.981.
